The values that follow come from patent US6087334A, “Anti-diabetic peptides” (Amylin Pharmaceuticals, Inc., priority 1998, dated 2000).

Where a SMILES comes first, the peptide text is derived from it. Bridges are numbered along the chain shown (N, C = ends).

In the test the target is T1, C1a receptor (C1a-type calcitonin receptor) (Rattus norvegicus, UniProt P32214).
T1 construct: expressed in transfected cells
T1 sequence (P32214 25-479 isoform P32214-2 limits assumed): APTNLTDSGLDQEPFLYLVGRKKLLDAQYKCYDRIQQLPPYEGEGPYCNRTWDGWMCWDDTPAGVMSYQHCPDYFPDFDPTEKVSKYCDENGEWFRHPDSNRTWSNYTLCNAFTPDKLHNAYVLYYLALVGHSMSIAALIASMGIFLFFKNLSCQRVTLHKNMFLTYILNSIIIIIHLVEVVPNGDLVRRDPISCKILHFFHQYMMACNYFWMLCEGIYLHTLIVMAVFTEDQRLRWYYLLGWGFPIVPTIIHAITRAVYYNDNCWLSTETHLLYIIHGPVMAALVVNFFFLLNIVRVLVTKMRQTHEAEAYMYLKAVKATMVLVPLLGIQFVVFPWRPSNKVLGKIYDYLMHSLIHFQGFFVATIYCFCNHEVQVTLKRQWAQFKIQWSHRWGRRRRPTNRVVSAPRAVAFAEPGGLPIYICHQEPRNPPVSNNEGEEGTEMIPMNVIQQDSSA
As to the kind of experiment: biochemical. As to conditions: HEK293 plasma membranes, [35S]-GTPγS 200 pM; read-out: ED50 (nM) Example B (C1a GTPγS).
Regarding `CC(C)C[C@H](NC(=O)[C@H](CCCNC(=N)N)NC(=O)[C@H](C)NC(=O)[C@@H](NC(=O)[C@H](C)NC(=O)[C@@H]1CSSC[C@H](NC(=O)[C@@H](N)CCCCN)C(=O)N[C@@H](CC(N)=O)C(=O)N[C@@H]([C@@H](C)O)C(=O)N[C@@H](C)C(=O)N[C@@H]([C@@H](C)O)C(=O)N1)[C@@H](C)O)C(=O)N[C@@H](C)C(=O)N[C@@H](C)C(=O)N[C@@H](Cc1ccccc1)C(=O)N[C@@H](CC(C)C)C(=O)N[C@@H](C)C(=O)N[C@@H](CCCNC(=N)N)C(=O)N[C@@H](CO)C(=O)N[C@@H](CO)C(=O)NCC(=O)N[C@@H](Cc1ccc(O)cc1)C(N)=O` [Example 1] (H-KCNTATCATARLAAFLARSSGY-NH2; disulfide 2-7), the EC50 was 0.7 nM.

Regarding `CC(C)C[C@H](NC(=O)[C@H](CCCNC(=N)N)NC(=O)[C@H](C)NC(=O)[C@@H](NC(=O)[C@H](C)NC(=O)[C@@H]1CSSC[C@H](N)C(=O)N[C@@H](CC(N)=O)C(=O)N[C@@H]([C@@H](C)O)C(=O)N[C@@H](C)C(=O)N[C@@H]([C@@H](C)O)C(=O)N1)[C@@H](C)O)C(=O)N[C@@H](C)C(=O)N[C@@H](C)C(=O)N[C@@H](Cc1ccccc1)C(=O)N[C@@H](CC(C)C)C(=O)N[C@@H](C)C(=O)N[C@@H](CCCNC(=N)N)C(=O)N[C@@H](CO)C(N)=O` [Example 3] (H-CNTATCATARLAAFLARS-NH2; disulfide 1-6), the EC50 amounted to 1.2 nM.

Regarding `CC(C)C[C@H](NC(=O)[C@H](CCCNC(=N)N)NC(=O)[C@H](C)NC(=O)[C@@H](NC(=O)[C@H](C)NC(=O)[C@@H]1CSSC[C@H](NC(=O)[C@@H](N)CCCCN)C(=O)N[C@@H](CC(N)=O)C(=O)N[C@@H]([C@@H](C)O)C(=O)N[C@@H](C)C(=O)N[C@@H]([C@@H](C)O)C(=O)N1)[C@@H](C)O)C(=O)N[C@@H](C)C(=O)N[C@@H](CC(N)=O)C(=O)N[C@@H](Cc1ccccc1)C(=O)N[C@@H](CC(C)C)C(=O)N[C@H](C(=O)N[C@@H](CCCNC(=N)N)C(=O)N[C@@H](CO)C(=O)N[C@@H](CO)C(=O)NCC(=O)N[C@@H](Cc1ccc(O)cc1)C(N)=O)C(C)C` [Example 5] (H-KCNTATCATARLANFLVRSSGY-NH2; disulfide 2-7), the EC50 stood at 5.5 nM.

For `CC(C)C[C@H](NC(=O)[C@H](CCCNC(=N)N)NC(=O)[C@H](C)NC(=O)[C@@H](NC(=O)[C@H](C)NC(=O)[C@H](C)NC(=O)[C@@H](NC(=O)[C@H](CO)NC(=O)[C@@H](N)CC(C)C)[C@@H](C)O)[C@@H](C)O)C(=O)N[C@@H](C)C(=O)N[C@@H](C)C(=O)N[C@@H](Cc1ccccc1)C(=O)N[C@@H](CC(C)C)C(=O)N[C@@H](C)C(=O)N[C@@H](CCCNC(=N)N)C(=O)N[C@@H](CO)C(N)=O` [Example 6] (H-LSTAATARLAAFLARS-NH2), the EC50 is 0.58 nM.
